Experimental data reported in paper PMC12567349, “Design and Optimization of Spiro-Isatin-Thiazolidinone Hybrids with Promising Anticancer Activity” (Pharmaceuticals, 2025).

Key:
Type in all cases: cell-based
HCT116 cells = assay: MTT assay, 72 h, HCT116; details: Homo sapiens, HCT-116, mean ± SD
Experimental: (§1) The cytotoxic potential of the synthesized compounds was investigated using the MTT assay after 72 h incubation with a panel of human and murine cancer cell lines, including colorectal carcinoma (HCT116), estrogen receptor-positive breast adenocarcinoma (MCF-7), triple-negative breast adenocarcinoma (MDA-MB-231), epidermoid carcinoma (KB3-1), myeloid leukemia (K562), and glioblastoma (U373), and mouse breast carcinoma (4T1) cells. To assess the selectivity of the compounds, pseudo-normal cell lines—human keratinocytes (HaCaTs) and mouse fibroblasts (NIH3T3s)—were also tested under the same conditions.
(§2) Human breast adenocarcinoma cells of MCF-7 and MDA-MB-231 lines, human glioblastoma cells of U373 line, human chronic myelogenous leukemia cells of K562 line, human colorectal carcinoma cells of HCT116 line, and human epidermoid carcinoma cells of KB3-1 line were kindly donated by a Collection of the Institute for Cancer Research at Vienna Medical University (Vienna, Austria). Human keratinocytes of HaCaT line, murine breast carcinoma cells of 4T1 line, and murine fibroblasts of the NIH3T3 line were obtained from the Cell Collection of the R.E. Kavetsky Institute of Experimental Pathology, Oncology and Radiobiology of the National Academy of Sciences of Ukraine (Kyiv, Ukraine). MCF-7, MDA-MB-231, U373, K562, HaCaT, and NIH3T3 cells were cultured in DMEM medium (Sigma-Aldrich, Burlington, MA, USA) supplemented with 2 mM L-glutamine, 4500 mg/L glucose, and 1 mM sodium pyruvate. HCT116 and KB3-1 cells were maintained in RPMI-1640 medium supplemented with 2 mM L-glutamine (Sigma-Aldrich, USA). Both media were supplemented with 10% fetal bovine serum (Sigma-Aldrich, USA). All cell lines were incubated at 37 °C in a humidified atmosphere containing 5% CO2.
(§3) The substrate cells were seeded at a density of 5000 cells per 100 µL, while suspension K562 cells were seeded at 15,000 cells per 100 µL in 96-well plates and incubated overnight. Doxorubicin (Dox, Sigma-Aldrich, USA) was used as a reference drug. Studied substances were then added in 100 µL of culture medium, and the cells were further incubated for 72 h. Subsequently, 20 µL of MTT solution (5 mg/mL, Sigma-Aldrich, USA) was added to each well and incubated for 2–4 h. Formazan crystals were then solubilized by adding dimethyl sulfoxide (Sigma-Aldrich, USA). Absorbance was measured using a BioTek ELx800 Absorbance Reader (BioTek Instruments, Inc., Winooski, VT, USA). The results were analyzed and illustrated using GraphPad Prism (version 8.0.1; GraphPad Software, San Diego, CA, USA) and presented as a mean (M) ± standard deviation (SD). The IC50 values of the compounds were determined using nonlinear regression analysis in GraphPad Prism 10.4.2 [40].

MCF-7 cells = assay: MTT assay, 72 h, MCF-7; details: Homo sapiens, MCF7, mean ± SD
Experimental: as §1, §2
as §3, with “Doxorubicin (Dox, Sigma-Aldrich, USA) was used as a reference drug.” left out

MDA-MB-231 cells = assay: MTT assay, 72 h, MDA-MB-231; details: Homo sapiens, mean ± SD
Experimental: as §1, §2, §3

4T1 cells = assay: MTT assay, 72 h, 4T1; details: Mus musculus, mean ± SD
Experimental: as §1, §2, §3

KB3-1 cells = assay: MTT assay, 72 h, KB3-1; details: Homo sapiens, KB 3-1, mean ± SD
Experimental: as §1, §2, §3

K562 cells = assay: MTT assay, 72 h, K562; details: Homo sapiens, mean ± SD
Experimental: as §1, §2, §3

U373 cells = assay: MTT assay, 72 h, U373; details: Homo sapiens, U373 MG, mean ± SD
Experimental: as §1, §2, §3

HaCaT cells = assay: MTT assay, 72 h, HaCaT (pseudo-normal); details: Homo sapiens, mean ± SD
Experimental: as §1, §2, §3

NIH3T3 cells = assay: MTT assay, 72 h, NIH3T3 (pseudo-normal); details: Mus musculus, mean ± SD
Experimental: as §1, §2, §3

Compound | IC50 (HCT116 cells) [µM] | IC50 (MCF-7 cells) [µM] | IC50 (MDA-MB-231 cells) [µM] | IC50 (4T1 cells) [µM] | IC50 (K562 cells) [µM] | IC50 (KB3-1 cells) [µM] | IC50 (U373 cells) [µM] | IC50 (HaCaT cells) [µM] | IC50 (NIH3T3 cells) [µM]
COc1ccc(N2C(=O)CSC23C(=O)Nc2ccc(Cl)cc23)cc1 (centres unmarked) [Compound 1, 5-Chloro-3′-(4-methoxyphenyl)spiro[indoline-3,2′-thiazolidine]-2,4′-dione] | > 100 | > 100 | 85.3 ± 1.15 | 89.4 ± 1.93 | 71.8 ± 7.79 | 62.3 ± 0.51 | 76.7 ± 0.54 | 96.7 ± 1.02 | 77.6 ± 1.82
O=C1CSC2(C(=O)Nc3ccc(Cl)cc32)N1c1ccc(Cl)cc1 (centres unmarked) [Compound 2, 5-Chloro-3′-(4-chlorophenyl)spiro[indoline-3,2′-thiazolidine]-2,4′-dione] | > 100 | 84.9 ± 6.51 | 62.69 ± 0.22 | 73 ± 7.02 | 9.96 ± 1.17 | 51.77 ± 0.26 | 77.91 ± 0.56 | 82.8 ± 1.94 | 98.25 ± 0.64
O=C1CSC2(C(=O)Nc3ccc(Br)cc32)N1c1ccc(Br)cc1 (centres unmarked) [Compound 3, 5-Bromo-3′-(4-bromophenyl)spiro[indoline-3,2′-thiazolidine]-2,4′-dione] | 88.9 ± 6.33 | 64 ± 4.77 | 56.5 ± 1.93 | 43.8 ± 1.76 | 7.99 ± 0.12 | 46.7 ± 0.54 | 49.4 ± 1.33 | 38.4 ± 0.77 | 82.9 ± 2.05
O=C1CSC2(C(=O)Nc3ccc(Cl)cc32)N1Cc1ccccc1 (centres unmarked) [Compound 5, 3′-Benzyl-5-chlorospiro[indoline-3,2′-thiazolidine]-2,4′-dione] | 92.8 ± 1.09 | 42.6 ± 1.24 | 68.79 ± 0.62 | 95.3 ± 1.07 | 95.5 ± 2.64 | 52.1 ± 0.67 | 76.2 ± 0.8 | > 100 | > 100
COc1ccc(N2C(=O)/C(=C/C=C/c3ccccc3)SC23C(=O)Nc2ccc(Cl)cc23)cc1 (centres unmarked) [Compound 6, (Z)-5-Chloro-3′-(4-methoxyphenyl)-5′-((E)-3-phenylallylidene)spiro[indoline-3,2′-thiazolidine]-2,4′-dione] | > 100 | 83.3 ± 6.03 | 55.9 ± 5.67 | 68 ± 2.6 | > 100 | 45.23 ± 0.36 | 69.5 ± 0.9 | 85.3 ± 1.27 | > 100
COc1ccc(N2C(=O)/C(=C/c3ccc(Cl)cc3)SC23C(=O)Nc2ccc(Cl)cc23)cc1 (centres unmarked) [Compound 7, (Z)-5-Chloro-5′-(4-chlorobenzylidene)-3′-(4-methoxyphenyl)spiro[indoline-3,2′-thiazolidine]-2,4′-dione] | > 100 | 52.2 ± 2.15 | 8.55 ± 0.06 | 29 ± 0.92 | 27.7 ± 3.02 | 17.2 ± 0.21 | 72.3 ± 0.8 | 8.63 ± 0.57 | 79.7 ± 0.93
O=C1/C(=C/c2ccc(-c3ccccn3)cc2)SC2(C(=O)Nc3ccc(Cl)cc32)N1c1ccc(Cl)cc1 (centres unmarked) [Compound 13, (Z)-5-Chloro-3′-(4-chlorophenyl)-5′-(4-(pyridin-2-yl)benzylidene)spiro[indoline-3,2′-thiazolidine]-2,4′-dione] | 41.4 ± 0.62 | > 100 | > 100 | > 100 | 5.55 ± 0.17 | 0.99 ± 0.08 | > 100 | > 100 | > 100
COc1cccc2c1C(=O)c1c(O)c3c(c(O)c1C2=O)C[C@@](O)(C(=O)CO)C[C@@H]3O[C@H]1C[C@H](N)[C@H](O)[C@H](C)O1 [Dox, Doxorubicin, reference compound] | 0.9 ± 0.11 |  | 0.6 ± 0.08 | 0.73 ± 0.1 | 0.95 ± 0.11 | 0.53 ± 0.08 | 0.35 ± 0.09 | 3.1 ± 0.18 | 0.63 ± 0.12

More lines, main results first:

IC50 (HCT116 cells) [µM] | IC50 (MCF-7 cells) [µM] | IC50 (MDA-MB-231 cells) [µM] | IC50 (4T1 cells) [µM] | IC50 (K562 cells) [µM] | Compound | IC50 (KB3-1 cells) [µM] | IC50 (U373 cells) [µM] | IC50 (HaCaT cells) [µM] | IC50 (NIH3T3 cells) [µM]
> 100 | > 100 | 99.21 ± 0.41 | 91.8 ± 1.55 | 88.8 ± 4.06 | O=C1CSC2(C(=O)Nc3ccc(F)cc32)N1Cc1ccccc1 (centres unmarked) [Compound 4, 3′-Benzyl-5-fluorospiro[indoline-3,2′-thiazolidine]-2,4′-dione] | 60.2 ± 0.72 | 98.6 ± 1.92 | > 100 | > 100
> 100 | 74.5 ± 4.73 | 7.89 ± 0.33 | 7.84 ± 0.49 | 67.1 ± 0.7 | CCOc1ccc(/C=C2\SC3(C(=O)Nc4ccc(Cl)cc43)N(c3ccc(Cl)cc3)C2=O)cc1 (centres unmarked) [Compound 9, (Z)-5-Chloro-3′-(4-chlorophenyl)-5′-(4-ethoxybenzylidene)spiro[indoline-3,2′-thiazolidine]-2,4′-dione] | 22.3 ± 1.17 | 98.22 ± 0.87 | > 100 | > 100
> 100 | > 100 | > 100 | > 100 | > 100 | O=C1/C(=C/c2ccc(N3CCOCC3)cc2)SC2(C(=O)Nc3ccc(Cl)cc32)N1c1ccc(Cl)cc1 (centres unmarked) [Compound 10, (Z)-5-Chloro-3′-(4-chlorophenyl)-5′-(4-morpholinobenzylidene)spiro[indoline-3,2′-thiazolidine]-2,4′-dione] | 16.9 ± 0.86 | > 100 | > 100 | > 100
> 100 | 6 ± 0.28 | 6.37 ± 0.11 | 5.66 ± 0.27 | 74.35 ± 0.66 | O=C1/C(=C/c2ccc(Cl)cc2)SC2(C(=O)Nc3ccc(Cl)cc32)N1c1ccc(Cl)cc1 (centres unmarked) [Compound 11, (Z)-5-Chloro-5′-(4-chlorobenzylidene)-3′-(4-chlorophenyl)spiro[indoline-3,2′-thiazolidine]-2,4′-dione] | 6.95 ± 0.14 | 66.9 ± 0.83 | 8.67 ± 0.49 | > 100
> 100 | > 100 | > 100 | > 100 | > 100 | COc1ccc(N2C(=O)/C(=C/c3ccc(-c4ccccn4)cc3)SC23C(=O)Nc2ccc(Cl)cc23)cc1 (centres unmarked) [Compound 12, (Z)-5-Chloro-3′-(4-methoxyphenyl)-5′-(4-(pyridin-2-yl)benzylidene)spiro[indoline-3,2′-thiazolidine]-2,4′-dione] | 0.97 ± 0.11 | > 100 | > 100 | > 100
> 100 | 77.4 ± 2.9 | 30.7 ± 0.45 | 46.6 ± 2.98 | > 100 | CC(C)(C)c1ccc(/C=C2\SC3(C(=O)Nc4ccc(Cl)cc43)N(c3ccc(Cl)cc3)C2=O)cc1 (centres unmarked) [Compound 15, (Z)-5′-(4-(Tert-butyl)benzylidene)-5-chloro-3′-(4-chlorophenyl)spiro[indoline-3,2′-thiazolidine]-2,4′-dione] | 9.77 ± 0.78 | 79.3 ± 1.31 | > 100 | 90.32 ± 0.68
> 100 | > 100 | 53.27 ± 0.51 | 69 ± 5.11 | > 100 | CC(C)(C)c1ccc(/C=C2\SC3(C(=O)Nc4ccc(Br)cc43)N(c3ccc(Br)cc3)C2=O)cc1 (centres unmarked) [Compound 16, (Z)-5-Bromo-3′-(4-bromophenyl)-5′-(4-(tert-butyl)benzylidene)spiro[indoline-3,2′-thiazolidine]-2,4′-dione] | 29.5 ± 0.33 | > 100 | > 100 | > 100
